In series [1] the test system is whole cellular proteome of MDA-MB-231 cells. In words: Proteome profiling of LD4172 induced protein degradation. It counts as cell-based, human. Particulars: 200 nM, 6 h. As to the method:
One million MDA-MB-231 cells were seeded in 6-well plates. The following day, cells were treated in triplicate with LD4172 (200 nM) or LD4172-NC (200 nM) for 6 h. The cells were washed thrice with ice-cold PBS. The cell pellets were lysed, reduced, alkylated, and digested using EasyPep™ MS Sample Prep Kits (A45733,ThermoFisher) according to the manufacturer’s instructions. The same amount of peptide from each condition was labeled with a tandem mass tag (TMT) reagent (90113, ThermoFisher). The 10-plex TMT reagent was incubated with each peptide sample at a ratio of 1:8 (peptide:TMT label). The 10-plex labeling reactions were performed for 1 h at room temperature. The labeled peptide samples were quenched by adding 50 μL of 5% hydroxylamine and 20% formic acid solution for 5 min and then mixed. […]
Proteome Discoverer 2.4 (Thermo Fisher Scientific) was used. RAW file processing and controlling peptide- and protein-level false discovery rates, assembling proteins from peptides, and protein quantification from peptides. […] PSMs with precursor isolation interference values > 50% and average TMT-reporter ion signal-to-noise values (S/N) < 10 were excluded from quantitation. […] Protein quantification uses both unique and […] peptides. […]

Series [2] can be described thus: Stability in human liver S9 fractions. The class given is in vitro ADME.
Another series relates to B16F10 tumors. As to the kind of experiment: B16F10 syngeneic tumor model with anti-PD1. The class given is in vivo. As to the method: Figure 4 LD4172 synergizes with Anti-PD1 to inhibit tumor growth. A, Plasma concentrations of LD4172 in C57BL/6J mice administered 1 mg/kg intravenously (i.v.) or 10 mg/kg intraperitoneally (i.p.) (n=4). B, Representative immunoblots of RIPK1 in different tissues of C57BL/6J mice treated with LD4172 (n=3–4). C, Densitometric analysis of RIPK1 protein levels in different tissues (n=3 or 4). D, Representative immunoblots of RIPK1 levels of B16F10 cells transduced with gRNA specific for RIPK1 or non-targetable control (sgNC). E, B16F10-RIPK1-KO tumors sensitized to anti-PD1 treatment: 3×10^5 B16F10 cells transduced with gRNA specific for RIPK1 or non-targetable control (sgNC) were inoculated into C57BL/6J mice. After seven days, mice with measurable tumors (~100 mm3) were randomly treated with or without anti-PD1 in vivo (100 μg per dose, i.p., every three days, n=8). F, Tumor growth curve of mice with B16F10 tumors treated with LD4172 and/or anti-PD1 (n=8). C57B6/J mice were subcutaneously inoculated with 3×10^5 B16F10 tumor cells. After seven days (tumor size ~ 100 mm3), mice were treated every three days with anti- PD1 (100 μg per dose, i.p.), daily with LD4172 (20 mg/kg, i.p.), a combination of LD4172 and anti-PD1 (same dose as their individual doses), or their corresponding vehicle control. G, Kaplan-Meier survival curve for all experimental groups. H, Final tumor weight (g) from F after 22d of treatment (n=8). I, Representative images of B16F10 tumors collected at the end of treatment. J, Mouse body weight (n=8). K, Tumor growth curve of mice with B16F10 tumors treated with T2I and/or anti-PD1 (n=8). The experimental conditions and treatment regimens were the same as F except using the RIPK1 kinase inhibitor T2I (20 mg/kg, i.p.) to replace LD4172. Representative data from at least three independent experiments are shown. Data are expressed as the mean ± SEM. * p<0.05; ** p<0.01; *** p<0.001, **** p<0.0001, respectively. ns, indicates no statistical significance.
To establish a syngeneic mouse model, 3× 10^5 B16F10 cells resuspended in PBS were mixed 1:1 by volume with Matrigel (354262, Corning) and subcutaneously injected into the right flank of seven-week-old wild-type female C57BL/6J mice on day 0. Treatments were started on day 7 when the tumor volume reached approximately 100 mm^3. Antibodies were administered in 100μL volumes and injected intraperitoneally every three days for the following: anti-PD1 (100 μg, BE0146, BioXcell) and anti-CD8 (500 μg, BE0004, BioXcell). The RIPK1 degrader LD4172 and RIPK1 kinase inhibitor T2I were delivered in 200 μL of vehicle solution (30% PEG400, 5% Tween-80, 5% DMSO) once daily (20 mg/kg, i.p. injection). […] Tumors were measured every three days beginning on day 7 after the challenge until death. […]

SMILES strings stand for the structures. Entries after “also recorded” stand apart in the source; their conditions may differ.

On to `Cc1ncsc1-c1ccc([C@H](C)NC(=O)[C@@H]2C[C@@H](O)CN2C(=O)[C@@H](NC(=O)CCCCCCCCCCC(=O)NCCCn2cc(-c3ccc4c(c3)CCN4C(=O)Cc3cccc(OC(F)(F)F)c3)c3c(N)ncnc32)C(C)(C)C)cc1` [LD4172], for which the “degradation of off-target kinases” value in series [1] was “no degradation of off-target kinases was observed”. In addition, the “proteins degraded in whole cellular proteome” value in series [1] (vs LD4172-NC) was “only protein showing >50% degradation; also recorded: RIPK1 was the only protein degraded”. In series [2], the half-life – broadly, the time needed for the level to fall by half in the phase considered – was 21.1 min and the “intrinsic clearance (CLint)” value is listed as 32.8 μL·min^− 1·mg^− 1 protein. Further, in the series on B16F10 tumors (B16F10 tumors, 20 mg/kg i.p. daily plus anti-PD1 100 μg i.p. every three days), the “tumor response in combination with anti-PD1” value is “sensitized B16F10 tumors to anti-PD1 therapy”. In the series on B16F10 tumors (B16F10 tumors, LD4172 20 mg/kg i.p. daily, anti-PD1 100 μg i.p. every three days), the “tumor progression, single agent” value is on record as “tumor progression similar to that of the untreated mice”. In addition, in the series with B16F10 tumors (long-term administration), the mouse body weight result is given as “no impact on mouse body weight”.

Source of the values: article PMC11042424, “Development of a First-in-Class RIPK1 Degrader to Enhance Antitumor Immunity” (Research Square, 2024).
